Assay results: PMC6006285, “Specific stereochemistry of OP-1074 disrupts estrogen receptor alpha helix 12 and confers pure antiestrogenic activity” (Nature Communications, 2018)
“And” between values parts separate entries of the source, which are not always exact repeats. Equal values may be shown once. Read-outs that look alike come from different tables or passages of the source.

Assays:
[1] = tested on: E2-stimulated AP activity in Ishikawa cells; test: Alkaline phosphatase (AP) assay, antagonist mode (presence of 500 pM E2); assay type: cell-based, human
Experimental: Our primary screen to distinguish pure antiestrogens from SERMs was induction of alkaline phosphatase (AP) activity in Ishikawa uterine cells. […] The reference SERM used in our screen was endoxifen (N-desmethyl-4-hydroxytamoxifen), the most abundant bioactive metabolite of tamoxifen.
(§1) Shown is a representative figure analyzed and presented as above.
At least 4 h later cells were treated with antiestrogens and media was diluted to 2.5% stripped FBS. Cells were incubated for 3 days, media removed and plates frozen at −80 °C. Thawed plates were incubated with a chromogenic substrate of AP, p-nitrophenyl phosphate (ThermoFisher Scientific, #36721), for 40–60 min at 40 °C, and absorbance read at 405 nm on the Varioskan Lux multimodal plate reader (ThermoFisher Scientific, #VLBL00D0).

wild type ERα = target: T1, wild type ERα (Homo sapiens, UniProt P03372); test: ERE3X-TATA-Luc reporter in HeLa cells transfected with ERα; assay type: cell-based; settings: 1 nM E2, 22 h, read-out: IC50 inhibition of E2-stimulated ERα transcriptional activity
T1 construct: expressed in transfected cells; host or cells: HeLa
T1 sequence (P03372 1-595): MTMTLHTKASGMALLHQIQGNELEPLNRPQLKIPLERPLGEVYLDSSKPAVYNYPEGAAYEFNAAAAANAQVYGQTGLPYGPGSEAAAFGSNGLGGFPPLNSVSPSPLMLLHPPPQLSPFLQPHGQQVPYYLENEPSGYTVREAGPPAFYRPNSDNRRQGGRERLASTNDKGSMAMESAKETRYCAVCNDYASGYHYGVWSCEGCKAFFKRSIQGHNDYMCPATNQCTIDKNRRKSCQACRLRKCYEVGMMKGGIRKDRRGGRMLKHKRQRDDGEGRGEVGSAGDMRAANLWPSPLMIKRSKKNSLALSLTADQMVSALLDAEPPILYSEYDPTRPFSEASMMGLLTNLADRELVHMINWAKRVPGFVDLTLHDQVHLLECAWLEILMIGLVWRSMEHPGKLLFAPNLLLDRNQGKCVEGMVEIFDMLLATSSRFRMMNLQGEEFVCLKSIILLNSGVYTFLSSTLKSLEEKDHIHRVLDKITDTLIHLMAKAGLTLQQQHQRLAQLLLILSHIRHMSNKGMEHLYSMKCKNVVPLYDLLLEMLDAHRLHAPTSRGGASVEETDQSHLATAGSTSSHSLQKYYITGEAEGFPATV
Text: Supplementary Figure 2: Specificity of OP-1074
Supplementary Figure 2. OP-1074 is specific for ERα and ERβ. A, OP-1074 inhibits E2-stimulated ERα and ERβ mediated transcription. HeLa cells were transfected with an estrogen responsive reporter gene, ERE3X-TATA-Luc, along with wild type ERα or ERβ, and treated […]
Shown is the mean luciferase activity
Luciferase activity (% Dex)
Luciferase activity (% MPA)
Luciferase activity (% R1881)
(1 picture or pasted object on this page, not shown here) […]
representative experiment. […]
receptor (AR, (B)), glucocorticoid receptor (GR, (C)), and the B-isoform of the progesterone receptor (PR-B, (D)). HeLa cells were transfected with the designated wild type receptor along with reporter gene PRE3X-TATA-Luc, which is promiscuously activated with known agonists specific for each receptor: R1881 for AR, dexamethasone (Dex) for GR, and medroxyprogesterone acetate (MPA) for PR-B. Each receptor was also dosed with one concentration of known antagonist for each receptor: 32 nM bicalutamide for AR, and 500 nM RU486 for GR and PR. Transfected cells were treated with the designated ligands for 22 hours and luciferase activity assayed. Shown are representative experiments, independently performed at least 3 times. Note that curves for agonists for each receptor were performed in separate experiments. […]

[2] = tested on: uterus of ovariectomized BALB/c mice; test: Uterine wet weight (uterotrophic assay) in ovariectomized BALB/c mice; assay type: in vivo, mouse; settings: 100 mg/kg oral gavage daily for 3 days
Text: as §1
To confirm that OP-1074 lacks agonist activity in the uterus, we tested it in ovariectomized BALB/c mice in a uterotrophic assay. […] Thus, OP-1074 is a pure antiestrogen in the mouse uterus.
Animals were euthanized and uteri dissected and weighed.

CAMA-1 cells = test: Inhibition of E2-stimulated proliferation of CAMA-1 cells; assay type: cell-based; settings: Homo sapiens, CAMA-1, 192 h; read-out: CAMA-1 IC50 proliferation (Fig. 3c)
Experimental: Shown is a representative figure analyzed and presented as above. d, Western blot of destabilization of ERα protein by OP-1074.
Proliferation was measured using CyQuant fluorescent DNA-binding dye kit (ThermoFisher Scientific, #C7026) using 1:200 GR dye and reading fluorescence at 485 nm excitation and 538 nm emission on the Varioskan Lux multimodal plate reader.

MCF-7 cells = test: Inhibition of E2-stimulated proliferation of MCF-7 cells; assay type: cell-based; settings: Homo sapiens
ERα = target: T2, ERα (Homo sapiens, UniProt P03372); test: ERα protein levels by immunoblotting; assay type: cell-based; settings: MCF-7 cells, 100 nM ligand, 24 h, means of n experiments ±s.d.
T2 construct: endogenous in cells
T2 sequence (P03372 1-595): T1 sequence (P03372 1-595)
Experimental: However, it is conceivable that under some clinical contexts SERD activity may still be a desirable feature by reducing the number of functional receptors in tumors.
Imaging was performed on FluorChem Imager by Alpha Innotech. […] An uncropped image of the immunoblot is shown in Supplementary Fig. 5.

**Q.** How did the IC50 ([1]; Homo sapiens, Ishikawa, 72 h, read-out: IC50 inhibition of E2-stimulated AP activity) turn out when CC1=C(c2ccc(O)cc2)[C@H](c2ccc(OCCN3CC[C@@H](C)C3)cc2)Oc2cc(O)ccc21 [OP-1074] was run?
**A.** The IC50 was 20 nM.

**Q.** And the “Antagonism of E2-stimulated AP activity” value ([1]; Ishikawa cells, 500 pM E2)?
**A.** Its value is “completely antagonized E2”.

**Q.** And the IC50 (wild type ERα)?
**A.** Its IC50 is 1.6 nM and 1.7 nM.

**Q.** What about the “Uterine wet weight, agonist mode” value ([2]; absence of E2, OP-1074 as mixture of active and inactive diastereomers) of the same compound?
**A.** The value was “did not increase uterine wet weight”.

**Q.** What about the “Uterine wet weight, antagonist mode” value ([2]; co-treated with E2 subcutaneously) of the same compound?
**A.** Its value is “not significantly different from fulvestrant”.

**Q.** And the IC50 (CAMA-1 cells)?
**A.** The IC50 was 5.7 nM.

**Q.** What about the IC50 (MCF-7 cells; MCF7, 168 h, read-out: MCF-7 IC50 proliferation (Fig. 3b)) of the same compound?
**A.** The IC50 was 9.2 nM.

**Q.** And the IC50 (MCF-7 cells; MCF7, read-out: IC50 proliferation)?
**A.** The IC50 was 7.2 ± 0.9 nM.

**Q.** What about the “Relative ERα protein levels (% vehicle)” value (ERα) of the same compound?
**A.** The value was 49 % vehicle and 49% ± 13 (n = 15) % vehicle.
